Patent US9980889B2, “Compositions comprising P-hydroxybenzylamine” (DSM IP ASSETS B.V., priority 2012, dated 2018)

What was measured:
Test in all cases: MIC by agar dilution method according to DIN 58 940
[1] = system: P. acnes; assay type: cell-based, Propionibacterium acnes; conditions: Cutibacterium acnes, ATCC11828; P. acnes ATCC 11828; Mueller-Hinton Agar, 36° C., read after 48 h
Description: (§1) The antimicrobial activity was assessed by determination of the Minimum Inhibitory Concentration (MIC) using the agar dilution method according to DIN 58 940 at the Labor L+SAG, D−Bad Bocklet-Grossenbrach.
(§2) Culture plates with a diameter of 5.5 cm were prepared with fresh, kept liquid (50° C.) Mueller-Hinton Agar (double concentrated, Merck 1.05437)/aqua purificata comprising p-Hydroxybenzylamine (pHBA) in the concentrations indicated in Table 1 according to standard methods. After solidifying and drying (about 1 h at 36° C.), the culture plates were inoculated with 1 μl of a suspension of the respective microorganism with the colony forming unit as outlined in table 1. The inoculated plates were then incubated at 36° C. The MIC's (i.e. the concentrations where still no growth could be observed) were determined after 18 h for E. coli, P. aeruginosa and S. aureus; after 48 h for P. acnes and after 78 h for A. brasiliensis and C. albicans. Per sample two culture plates were prepared. As control incubated and non-incubated cultures were used.
The suspensions of the microorganism's No. 1-4 were prepared by homogeneous suspension of 3-5 colonies of the same morphology in physiological NaCl-solution. The suspensions were adjusted such, that the haze corresponded to the Mac Farland standard 1.0 (about 3.0*10^8 KBE*/ml). […] The colony count was determined using a spiral plater system (see table 2).

[2] = system: E. coli; assay type: cell-based; conditions: Escherichia coli, ATCC8739; E. coli ATCC 8739; Mueller-Hinton Agar, 36° C., read after 18 h
Description: as §1, §2
(§3) The suspensions of the microorganism's No. 1-4 were prepared by homogeneous suspension of 3-5 colonies of the same morphology in physiological NaCl-solution. The suspensions were adjusted such, that the haze corresponded to the Mac Farland standard 1.0 (about 3.0*10^8 KBE*/ml). For the preparation of the suspensions of the microorganisms 5 and 6, the microorganisms have been taken with a sterile swab and diluted in an amount of physiological NaCl solution such, that the haze corresponded to the Mac Farland standard 1.0. Afterwards the suspensions of the microorganisms 1 and 3-6 have been further diluted with physiological NaCl-solution in a ratio of 1:10. The colony count was determined using a spiral plater system (see table 2).

[3] = system: A. brasiliensis; assay type: cell-based; conditions: Aspergillus brasiliensis, ATCC16404; A. brasiliensis ATCC 16404; Mueller-Hinton Agar, 36° C., read after 78 h
Description: as §1, §2, §3

[4] = system: C. albicans; assay type: cell-based; conditions: Candida albicans, ATCC10231; C. albicans ATCC 10231; Mueller-Hinton Agar, 36° C., read after 78 h
Description: as §1, §2, §3

[5] = system: P. aeruginosa; assay type: cell-based; conditions: Pseudomonas aeruginosa, ATCC9027; P. aeruginosa ATCC 9027; Mueller-Hinton Agar, 36° C., read after 18 h
Description: as §1, §2, §3

[6] = system: S. aureus; assay type: cell-based; conditions: Staphylococcus aureus, ATCC6538; S. aureus ATCC 6538; Mueller-Hinton Agar, 36° C., read after 18 h
Description: as §1, §2, §3

Measured: MIC

NCc1ccc(O)cc1 [pHBA, p-Hydroxybenzylamine]
7900 µg/mL: [1]
5270 µg/mL: all other assays above
